Assay results reported in BindingDB's records for doi:10.1016/j.ejmech.2021.113362 (The First Affiliated Hospital of Wenzhou Medical University, 2021).

biological target: Signal transducer and activator of transcription 3 (Homo sapiens, UniProt P40763); experiment: Inhibition of STAT3 phosphorylation in human MDA-MB-231 cells by sandwich ELISA
Sequence (P40763 whole entry): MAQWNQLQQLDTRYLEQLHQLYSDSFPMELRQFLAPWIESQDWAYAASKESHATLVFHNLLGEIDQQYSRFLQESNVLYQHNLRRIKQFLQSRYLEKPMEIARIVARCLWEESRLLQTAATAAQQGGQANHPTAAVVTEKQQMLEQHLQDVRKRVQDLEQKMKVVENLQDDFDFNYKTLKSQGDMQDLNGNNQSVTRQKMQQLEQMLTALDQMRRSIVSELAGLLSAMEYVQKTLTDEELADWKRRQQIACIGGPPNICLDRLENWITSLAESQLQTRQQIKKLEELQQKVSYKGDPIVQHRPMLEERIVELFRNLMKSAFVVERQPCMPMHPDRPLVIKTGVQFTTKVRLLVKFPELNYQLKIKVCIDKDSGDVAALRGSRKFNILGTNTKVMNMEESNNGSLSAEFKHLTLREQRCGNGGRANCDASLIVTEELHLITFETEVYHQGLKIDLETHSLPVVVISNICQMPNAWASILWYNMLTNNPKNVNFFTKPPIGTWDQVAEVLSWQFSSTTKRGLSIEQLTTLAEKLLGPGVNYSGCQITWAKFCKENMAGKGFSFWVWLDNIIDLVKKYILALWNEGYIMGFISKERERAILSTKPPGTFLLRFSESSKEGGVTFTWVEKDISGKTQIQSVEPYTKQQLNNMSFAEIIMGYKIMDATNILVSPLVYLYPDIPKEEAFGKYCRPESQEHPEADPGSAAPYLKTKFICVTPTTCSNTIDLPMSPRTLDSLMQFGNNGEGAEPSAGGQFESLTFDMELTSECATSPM

First: COc1cc(NC(=O)c2ccc(Cl)c(S(N)(=O)=O)c2)cc(OC)c1OC
Second: CC(C)(C)OC(=O)c1ccc(NC(=O)c2ccc(Cl)c(S(N)(=O)=O)c2)cc1
The IC50 of the first is 3.1-fold higher: 720 nM for the first, 230 nM for the second.

Going from `O=C(Nc1ccc([N+](=O)[O-])cc1Cl)c1cc(Cl)ccc1O` [5-chloro-N-(2-chloro-4-nitrophenyl)-2-hydroxybenzamide] to `CC(C)(C)OC(=O)c1ccc(NC(=O)c2cccc(S(N)(=O)=O)c2)cc1`, the IC50 rises from 210 nM to 920 nM (4.4-fold).
